# From US10752881B2, “Trans-differentiation of differentiation cells” (Helmholtz Zentrum München-Deutsches Forschungszentrum für …, priority 2014, dated 2020)
# Tests used:
# [1] = test system: astroglial cells transfected with Ascl1-RFP; experiment: Lipid peroxidation (C11-Bodipy staining) and glutathione detection during reprogramming; type: cell-based, mouse; details: co-transfected with Ascl1, 2 DPT
# Description: C, Micrographs show oxidized lipids (C11-Bodipy staining) at 2 DPT in astroglial cells transfected with Ascl1-REP alone or in combination with EE-Bcl-2 or A-Bcl-2. Note higher levels of oxidation in cells transfected with only Ascl1 or Ascl1+EE-BCl-2 (black arrows) compare to cells co-transfected with Ascl1+A-Bcl-2 (black arrowheads). High magnification pictures show partial co-localization of C11-Bodipy staining and DAPI in Ascl1-expressing cells contrarily to cells co-transfected with Ascl1+EE-Bcl-2 (see arrows).
# D, Pictures show glutathione (GSH) detection of same cells shown in C. Cells with normal or increased levels of GSH are depicted by arrowheads and arrows respectively.
# These observations open the question of why EE-Bcl-2 has no effect in neuronal reprogramming while A-Bcl-2 has.
# For the detection of oxidative stress we used CellROX green Reagent (Life technologies, C10444) according with the described protocol and fluorescence was detected by microscope (see below).
# [2] = test system: Mouse embryonic fibroblasts (MEFs); experiment: Fibroblast-to-neuron reprogramming of MEFs with retroviral vectors, β-III-tubulin immunostaining; type: cell-based
# [3] = test system: MEFs; details: MyoD + A-Bcl-2 vs MyoD/GFP
# [4] = test system: postnatal mouse astrocytes; details: co-transfected with Ascl1-RFP, 4 days
# Description: (C) Histogram of astroglial cultures transfected with Ascl1-RFP-encoding plasmid alone or in combination with WT-Bcl-2, EE-Bcl-2 or A-Bcl-2 at 4 days post-transfection (DPT). The number of transfected cells (RFP+) at final time point (4 DPT) was normalized to the initial number of transfected cells (1 DPT) to calculate the % of survival. The % of neuronal conversion was analysed by β-III-tubulin immunostaining and normalized to total number of RFP+ cells at the end of the experiment. Error bars indicate ±SD. *p<0.05, **p<0.01; ANOVA Tukeys post-test.
# A, Quantifications at 5 DPT (days post-transfection) showing the effect of the inhibitor of ferroptosis, α-toc and the inhibitor of apoptosis, ZVAD in survival/efficiency of conversion of astroglial cells transfected with Ascl1-RFP.
# C, Percentage of neurons in astroglial cells transfected with Ascl1-encoding plasmid alone or in combination with Bcl-2 and/or Vdr at 5 DPT after 4 days of treatment with calcitriol or untreated.
# After removal of the meninges, grey matter tissue was dissected from P5-P7 cerebral cortex of C57BL/6J mice and dissociated mechanically. Subsequently, cells were centrifuged for 5 min at 1000 rpm, re-suspended, and plated in medium consisting of DMEM/F12 (Gibco), 3.5 mM glucose (Sigma), 10% fetal calf serum (Gibco), 5% horse serum (Gibco), penicillin/streptomycin (Gibco) and supplemented with B27 (Gibco), 10 ng/mL epidermal growth factor (EGF, Roche) and 10 ng/mL fibroblast growth factor 2 (FGF2, Roche). After one week expansion cells were harvested using trypsin/EDTA (Gibco) and plated onto poly-D-lysine (Sigma-Aldrich) coated glass coverslips in 24-well plates (BD Biosciences) or directly onto the plastic for time lapse experiments at a density of 60,000 cells per well in the same medium. After 24 hours cells were either transfected with plasmid or infected with retroviral vectors and after further 24 hours medium was changed to differentiation medium composed of DMEM/F12 high glucose with GlutaMAX, penicillin/streptomycin and B27 supplement (Gibco) to allow neuronal differentiation.
# For transfection DNA-liposome complexes were prepared in Optimem medium (Invitrogen) using the retroviral plasmids described below and Lipofectamine 2000 (Invitrogen). Astrocyte cultures were exposed to DNA-liposome complexes at a concentration of 0.5 μg DNA per 400 μl of Optimem medium for 4 hours and cultured after that in the differentiation medium as above.
# Cells were fixed in 4% paraformaldehyde (PFA) in phosphate-buffered saline (PBS) for 10 min at room temperature (RT), washed in PBS and pretreated in 0.5% Triton X-100 in PBS for 30 min, followed by incubation in 2% BSA and 0.5% Triton X-100 in PBS for 30 min. Primary antibodies were incubated on specimen overnight at 4° C. in 2% BSA, 0.5% Triton X-100 in PBS.
substance,measurement,setting,value
"A-Bcl-2: S70A recombinant Bcl-2 with reduced ability to interact with Bax, mimics the un-phosphorylated form",effect on lipid peroxidation / oxidative stress (C11-Bodipy),[1],very efficiently reducing oxidative stress
same,neuronal conversion in MEFs (β-III-tubulin),"[2]; Ascl1-based retroviral vectors, 14 days after infection",> 75%
same,increase of proportion of neurons induced from MEFs,[2]; Neurog2 + A-Bcl-2 vs Neurog2/RFP,6 ×
same,"proportion of neurons induced from MEFs, of all infected cells","[2]; Neurog2-based retroviral vectors, 15 days after infection",63%
same,speed of conversion into skeletal muscle cells,[3],converted much faster into skeletal muscle cells
same,effect on cell survival during reprogramming,[4],decreased survival compared to those transfected with WT-Bcl-2- or EE-Bcl-2-encoding plasmids
same,effect on proportion of neuronal conversion mediated by Ascl1,[4]; β-III-tubulin,increased proportion of neurons induced from the transfected astrocytes
